Data on 25 compounds can be found in patent publication US11925632B2, “Isoquinoline derivatives for use in treating GLUT1 deficiency syndrome” (GLIAPHARM SA, priority 2019, dated 2024).

Structures are written as SMILES.

Common to all, as to type: cell-based
Experiment [1] deals with astrocytes. Briefly: Extracellular medium acidification (SNARF5) assay in astrocytes. The conditions noted are these: Mus musculus, Astrocyte, 1.5 h; astrocytes in vitro, 90 min stimulation, 10 nM to 30 μM. How it is done: Secretion of lactate was measured indirectly through the acidification of extracellular medium using extracellular pH sensor SNARE-5F-(AND-6)-CAR (SNARF5) as described below.
Secretion of lactate was measured indirectly through the acidification of extracellular medium using extracellular pH sensor […] (SNARF5). After washing cells twice with stimulation medium (DMEM (D5030, Sigma), 1 mM […], and 5 mM Glucose, pH 7.4) at 37° C., cells were stimulated with compounds at a final concentration ranging from 10 nM to 30 μM in 50 μl per well of stimulation medium supplemented with 10 μM of SNARF5 (Life Technologies Corporation). Each compound was tested in two different plates for duplicates. After 90 min stimulation, fluorescence was read at exc. (excitation) 480 nm/emm. (emission) 580 nm and at exc 480 nm/emm. 630 nm. The ratio of fluorescence between 630 nm and 580 emission values, which is proportional to extracellular pH, was calculated. In each plate, 8 wells were used for negative controls (DMSO 0.1%) and 8 wells were used for positive controls (CCCP 2 μM in DMSO).
Table 3 below lists compounds that are active on the extracellular medium acidification (SNARF5) assay in astrocytes in vitro, which indicates their ability to produce lactate. ‘+’ indicates activity of compounds with EC50>5 μM; ‘++’ indicates activity of compounds with EC50<5 μM.
(§1) Primary cultures of cerebrocortical astrocytes were obtained from 1 to 2-day-old OF1 mouse pups (Charles River). Briefly, cortices were isolated and minced in small pieces under a dissecting microscope. The cells were incubated for 30 min at 37° C. in a solution containing 20 U/ml papain, 1 mM L-cysteine and 10 kU/ml DNase I. After dissociation, papain activity was stopped by the addition of fetal calf serum (FCS). Single-cell suspension was then obtained by mechanical dissociation, which consisted in cells trituration in a DMEM D7777 medium supplemented with 44 mm NaHCO3, 10 ml/L antibiotic/antimycotic solution and 10% FCS. The cells were seeded at an average density of ˜10′000 cells/cm^2 on poly-D-lysine coated 96- or 12-well culture plates, depending on their use, and grown in DMEM D7777 medium supplemented with 44 mm NaHCO3, 10 ml/L antibiotic/antimycotic solution and 10% FCS at 37° C. in a humidified atmosphere containing 5% CO2/95% air. Culture medium was renewed twice a week. Cells were stimulated and harvested between DIV14 and DIV17, when confluence and cell growth were optimal.

For experiment [2], the system named is primary mouse astrocytes. Briefly: Extracellular lactate quantification (lactate release from primary astrocytes). The conditions noted are these: Astrocyte, 1.5 h; for EC50: primary mouse astrocytes, 90 min stimulation, read-out: EC50 of astrocyte-mediated lactate secretion; for Emax: Mus musculus, positive control CCCP 2 μM, 90 min, read-out: Maximal effect on lactate secretion compared to the effect of the positive control (100%). How it is done:
as §1
Secretion of L-lactate was measured in the extracellular medium of 96-well plated astrocytes after 90 min stimulation (at 37° C., in 5% CO2/95% air conditions) with Vehicle (DMSO), the compounds of the invention (100 nM to 100 μM) or positive control. […] Stimulation medium was composed of D5030 medium complemented with 5 mM D-glucose and 44 mM sodium bicarbonate, pH 7.2. To quantify lactate concentrations in the extracellular medium, 200 μl of a 0.2M Glycine-semicarbazide buffer (pH 10) containing 3 mM NAD and 14 U/ml LDH was added to each well of a 96-well plate containing 30 μl aliquots of extracellular medium. Samples were incubated at 37° C. for 1 h. Fluorescence intensity (340 nm excitation/450 nm emission), which represents the amount of NADH produced, was measured, and lactate concentration values were determined relative to a standard curve of L-lactate concentrations.
The release of lactate from primary mouse astrocytes treated with compound (1) at 10 μM was quantified by (FIG. 1). Accumulation of lactate in the extracellular medium was measured over a period of 1.5 h. […] Maximal effects of the compounds were 38.6% (1), 38% (2), 31% (4) and 76% (3) when compared to the effect of the positive control (100%) for compounds (1) to (4), respectively.

For experiment [3], the system named is primary astrocytes. As to the kind of experiment: MTT mitochondrial activity assay. As to conditions: Mus musculus, Astrocyte, 24 h treatment. How it is done: as §1
To monitor mitochondrial activity in astrocytes, which is linked to the metabolic process of glycolysis and production of lactate, astrocytes in 96-well plates were stimulated for 24 h (37° C. 5% CO2/95% air) with the compounds of the invention ranging from 0.2 to 200 μM.
After stimulation, 5 mg/ml thiazol blue tetrazolium bromide (MTT) in D5030 medium complemented with 5 mM D-glucose and 44 mM sodium bicarbonate (pH 7.2) was added to each well, and cells were incubated for 4 h at 37° C. (5% CO2). The medium was then removed and the amount of reduced MTT, i.e. formazan, solubilized in DMSO (50 μl/well) was determined using a spectrophotometer (absorbance of 570 nm).
The mitochondrial activity in primary astrocytes treated with Compounds (1) to (4) at concentrations ranging from 1 nM to 200 μM. After 24 h, mitochondrial activity was monitored in MTT colorimetric assay as described above (FIG. 3).

A word on the EC50: it is the concentration at which the effect is half-maximal. Turning to `COc1cc2ccnc(Nc3ccc(OC(F)(F)F)c(Cl)c3)c2cc1OC` [Example 19, N-(3-chloro-4-(trifluoromethoxy)phenyl)-6,7-dimethoxyisoquinolin-1-amine], the EC50 in experiment [1] is under 5 µM.
Still for that read-out and setting: next, `COc1ccc2c(Nc3ccc(OC(F)(F)F)cc3)ncc(C)c2c1` [Example 24, 6-methoxy-4-methyl-N-(4-(trifluoromethoxy)phenyl)isoquinolin-1-amine]: over 5 µM; `COc1cc2ccnc(Nc3cccc(N(C)C)c3)c2cc1OC` [Example 15, N^1-(6,7-dimethoxyisoquinolin-1-yl)-N^3,N^3-dimethylbenzene-1,3-diamine]: over 5 µM; `COc1ccc2c(Nc3ccc(OC(F)(F)F)cc3)ncc(Br)c2c1` [Example 25, 4-bromo-6-methoxy-N-(4-(trifluoromethoxy)phenyl)isoquinolin-1-amine]: over 5 µM.
In experiment [1], `COc1cc2ccnc(Nc3ccc(C#N)cc3C(F)(F)F)c2cc1OC` [Example 17, 4-((6,7-dimethoxyisoquinolin-1-yl)amino)-3-(trifluoromethyl)benzo-nitrite] registered a concentration for a half-maximal effect (EC50) of over 5 µM.
Compound `COCCc1ccc(Nc2nccc3cc(OC)c(OC)cc23)cc1` [Example 20, 6,7-dimethoxy-N-(4-(2-methoxyethyl)phenyl)isoquinolin-1-amine] displayed a concentration giving a half-maximal response (EC50) in experiment [1] of under 5 µM.
The same measure, in the same setting: the value for `COc1cc2ccnc(Nc3cccc(OC(F)(F)F)c3)c2cc1OC` [Example 11, 6,7-dimethoxy-N-(3-(trifluoromethoxy)phenyl)isoquinolin-1-amine] was under 5 µM; that for `COC(=O)c1ccc2c(Nc3ccc(OC(F)(F)F)cc3)nccc2c1` [Example 29, methyl 1-((4-(trifluoromethoxy)phenyl)amino)isoquinoline-6-carboxylate] was under 5 µM.
On the same count and under the same terms, next, `CCc1ccc2c(Nc3ccc(OC(F)(F)F)cc3)nccc2c1` [Example 30, 6-ethyl-N-(4-(trifluoromethoxy)phenyl)isoquinolin-1-amine]: under 5 µM; `COc1ccc(Nc2nccc3cc(OC)c(OC)cc23)cc1` [Example 7, 6,7-dimethoxy-N-(4-methoxyphenyl)isoquinolin-1-amine]: over 5 µM.
Same read-out and setting: next, `COc1cc2ccnc(Nc3ccc(C)cc3)c2cc1OC` [Example 6, 6,7-dimethoxy-N-(p-tolyl)isoquinolin-1-amine]: over 5 µM; `COc1ccc2c(Nc3ccc(OC(F)(F)F)cc3)nccc2c1C` [Example 21, 6-methoxy-5-methyl-N-(4-(trifluoromethoxy)phenyl)isoquinolin-1-amine]: under 5 µM.
In experiment [1], `COc1ccc(Nc2nccc3cc(OC)c(OC)cc23)cc1OC` [Example 5, N-(3,4-dimethoxyphenyl)-6,7-dimethoxyisoquinolin-1-amine] displayed a concentration giving a half-maximal response (EC50) of over 5 µM.
For orientation: IC50 means the concentration needed to halve the response being measured. For `COc1cc2ccnc(Nc3ccc(C(F)(F)F)cc3)c2cc1OC` [Example 2, 6,7-dimethoxy-N-(4-(trifluoromethyl)phenyl)isoquinolin-1-amine], the half-maximal effective concentration (EC50) in experiment [1] was over 5 µM; in experiment [2] it was 10.1 µM. In addition, the Emax in experiment [2] is 38%. The IC50 in experiment [3] was determined as 42.9 µM.
The matching figures for `COc1cc2ccnc(Cc3ccc(OC(F)(F)F)cc3)c2cc1OC` [Example 4, 6,7-dimethoxy-1-(4-(trifluoromethoxy)benzyl)isoquinoline]: over 5 µM, 10.5 µM, 31% and 5.5 µM.
`COc1cc2ccnc(Nc3ccc(SC)cc3)c2cc1OC` [Example 18, 6,7-dimethoxy-N-(4-(methylthio)phenyl)isoquinolin-1-amine] had a concentration giving a half-maximal response (EC50) in experiment [1] of over 5 µM.
In experiment [1], `COc1cc2ccnc(Nc3ccc(OC(F)(F)F)cc3F)c2cc1OC` [Example 10, N-(2-fluoro-4-(trifluoromethoxy)phenyl)-6,7-dimethoxyisoquinolin-1-amine] displayed a 50% effective concentration (EC50) of over 5 µM.
Regarding `CN(C)c1ccc2c(Nc3ccc(OC(F)(F)F)cc3)nccc2c1` [Example 27, N^6,N^6-dimethyl-N^1-(4-(trifluoromethoxy)phenyl)isoquinoline-1,6-diamine], in experiment [1], the EC50 is under 5 µM.
Compound `FC(F)(F)Oc1ccc(Nc2nccc3cc(Cl)ccc23)cc1` [Example 13, 6-chloro-N-(4-(trifluoromethoxy)phenyl)isoquinolin-1-amine] gave an EC50 in experiment [1] of over 5 µM.
On the same count and under the same terms, next, `COc1cc2ccnc(Nc3cccc(OC(F)F)c3)c2cc1OC` [Example 16, N-(3-(difluoromethoxy)phenyl)-6,7-dimethoxyisoquinolin-1-amine]: under 5 µM; `COCCOc1ccc(Nc2nccc3cc(OC)c(OC)cc23)cc1` [Example 8, 6,7-dimethoxy-N-(4-(2-methoxyethoxy)phenyl)isoquinolin-1-amine]: over 5 µM; `COc1cc2ccnc(Nc3ccc(OC(F)(F)F)c(F)c3)c2cc1OC` [Example 14, N-(3-fluoro-4-(trifluoromethoxy)phenyl)-6,7-dimethoxyisoquinolin-1-amine]: over 5 µM.
Consider `FC(F)(F)Oc1ccc(Nc2nccc3ccccc23)cc1` [Example 3, N-(4-(trifluoromethoxy)phenyl)isoquinolin-1-amine], for which, in experiment [1], the EC50 was over 5 µM. In experiment [2], the EC50 was 10.9 µM and the Emax is 76%. It took 26.6 µM to reach half-maximal inhibition in experiment [3] (IC50).
In experiment [1], `COc1ccc2c(Nc3ccc(OC(F)(F)F)cc3)nccc2c1` [Example 12, 6-methoxy-N-(4-(trifluoromethoxy)phenyl)isoquinolin-1-amine] came in with an EC50 of over 5 µM.
On the same count and under the same terms, the value for `COCc1ccc(Nc2nccc3cc(OC)c(OC)cc23)cc1` [Example 9, 6,7-dimethoxy-N-(4-(methoxymethyl)phenyl)isoquinolin-1-amine] was over 5 µM.
